Assay results as given in ChEMBL document CHEMBL4507305, “Data for DCP probe TP-024” (2021).

Tests used:
[1] = biological target: Cyclin-dependent kinase 16 (Homo sapiens) (UniProt Q00536); conditions: Compound concentration 1000.0 nM
[2] = biological target: Sigma non-opioid intracellular receptor 1 (Homo sapiens) (UniProt Q99720); conditions: Compound concentration 10.0 uM
[3] = biological target: Mitogen-activated protein kinase kinase kinase 6 (Homo sapiens) (UniProt O95382); conditions: Compound concentration 1000.0 nM
[4] = biological target: Proto-oncogene tyrosine-protein kinase receptor Ret (Homo sapiens) (UniProt P07949); conditions: Compound concentration 1000.0 nM
[5] = biological target: Tyrosine-protein kinase JAK1 (Homo sapiens) (UniProt P23458); conditions: Compound concentration 1000.0 nM
Sequence of Tyrosine-protein kinase JAK1 (Homo sapiens) (P23458 whole entry): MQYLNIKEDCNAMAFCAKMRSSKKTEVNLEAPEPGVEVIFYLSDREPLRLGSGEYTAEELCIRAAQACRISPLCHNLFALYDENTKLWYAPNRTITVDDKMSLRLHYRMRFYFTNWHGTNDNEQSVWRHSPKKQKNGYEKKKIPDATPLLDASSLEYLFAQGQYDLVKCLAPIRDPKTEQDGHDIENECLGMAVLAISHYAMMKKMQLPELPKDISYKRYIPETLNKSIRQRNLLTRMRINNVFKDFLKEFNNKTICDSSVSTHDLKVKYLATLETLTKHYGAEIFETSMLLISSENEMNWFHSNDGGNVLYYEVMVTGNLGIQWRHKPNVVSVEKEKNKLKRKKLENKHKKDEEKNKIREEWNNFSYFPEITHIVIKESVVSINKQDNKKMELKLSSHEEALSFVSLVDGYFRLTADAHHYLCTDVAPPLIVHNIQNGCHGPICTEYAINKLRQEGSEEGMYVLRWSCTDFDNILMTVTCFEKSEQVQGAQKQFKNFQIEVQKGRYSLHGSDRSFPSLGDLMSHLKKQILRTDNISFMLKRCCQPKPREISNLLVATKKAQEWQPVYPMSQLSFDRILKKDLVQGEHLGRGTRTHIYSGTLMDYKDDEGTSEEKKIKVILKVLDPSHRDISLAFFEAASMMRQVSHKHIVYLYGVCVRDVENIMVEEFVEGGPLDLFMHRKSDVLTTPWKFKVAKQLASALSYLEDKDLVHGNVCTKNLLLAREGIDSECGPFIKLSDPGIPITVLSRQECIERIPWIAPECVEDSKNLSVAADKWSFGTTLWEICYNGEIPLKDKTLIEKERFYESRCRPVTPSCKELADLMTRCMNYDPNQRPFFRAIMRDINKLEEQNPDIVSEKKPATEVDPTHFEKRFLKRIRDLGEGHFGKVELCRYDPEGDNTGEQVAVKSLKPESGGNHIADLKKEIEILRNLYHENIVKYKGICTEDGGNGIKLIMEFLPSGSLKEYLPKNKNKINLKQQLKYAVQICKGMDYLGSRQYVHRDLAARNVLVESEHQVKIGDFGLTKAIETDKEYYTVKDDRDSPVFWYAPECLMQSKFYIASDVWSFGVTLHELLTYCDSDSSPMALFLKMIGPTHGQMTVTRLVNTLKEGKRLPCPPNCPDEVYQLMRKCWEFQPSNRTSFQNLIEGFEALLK

[6] = biological target: Tyrosine-protein kinase HCK (Homo sapiens) (UniProt P08631); conditions: Compound concentration 1000.0 nM
[7] = biological target: Fibroblast growth factor receptor 2 (Homo sapiens) (UniProt P21802); conditions: Compound concentration 1000.0 nM
[8] = biological target: Dual specificity tyrosine-phosphorylation-regulated kinase 1B (Homo sapiens) (UniProt Q9Y463); conditions: Compound concentration 1000.0 nM
[9] = biological target: Mitogen-activated protein kinase kinase kinase kinase 3 (Homo sapiens) (UniProt Q8IVH8); conditions: Compound concentration 1000.0 nM
[10] = test system: Receptor-type tyrosine-protein kinase FLT3 (Homo sapiens), P36888 [K663Q]; conditions: Compound concentration 1000.0 nM
[11] = biological target: 1-phosphatidylinositol 3-phosphate 5-kinase (Homo sapiens) (UniProt Q9Y2I7); conditions: Compound concentration 1000.0 nM
Sequence of 1-phosphatidylinositol 3-phosphate 5-kinase (Homo sapiens) (Q9Y2I7 whole entry): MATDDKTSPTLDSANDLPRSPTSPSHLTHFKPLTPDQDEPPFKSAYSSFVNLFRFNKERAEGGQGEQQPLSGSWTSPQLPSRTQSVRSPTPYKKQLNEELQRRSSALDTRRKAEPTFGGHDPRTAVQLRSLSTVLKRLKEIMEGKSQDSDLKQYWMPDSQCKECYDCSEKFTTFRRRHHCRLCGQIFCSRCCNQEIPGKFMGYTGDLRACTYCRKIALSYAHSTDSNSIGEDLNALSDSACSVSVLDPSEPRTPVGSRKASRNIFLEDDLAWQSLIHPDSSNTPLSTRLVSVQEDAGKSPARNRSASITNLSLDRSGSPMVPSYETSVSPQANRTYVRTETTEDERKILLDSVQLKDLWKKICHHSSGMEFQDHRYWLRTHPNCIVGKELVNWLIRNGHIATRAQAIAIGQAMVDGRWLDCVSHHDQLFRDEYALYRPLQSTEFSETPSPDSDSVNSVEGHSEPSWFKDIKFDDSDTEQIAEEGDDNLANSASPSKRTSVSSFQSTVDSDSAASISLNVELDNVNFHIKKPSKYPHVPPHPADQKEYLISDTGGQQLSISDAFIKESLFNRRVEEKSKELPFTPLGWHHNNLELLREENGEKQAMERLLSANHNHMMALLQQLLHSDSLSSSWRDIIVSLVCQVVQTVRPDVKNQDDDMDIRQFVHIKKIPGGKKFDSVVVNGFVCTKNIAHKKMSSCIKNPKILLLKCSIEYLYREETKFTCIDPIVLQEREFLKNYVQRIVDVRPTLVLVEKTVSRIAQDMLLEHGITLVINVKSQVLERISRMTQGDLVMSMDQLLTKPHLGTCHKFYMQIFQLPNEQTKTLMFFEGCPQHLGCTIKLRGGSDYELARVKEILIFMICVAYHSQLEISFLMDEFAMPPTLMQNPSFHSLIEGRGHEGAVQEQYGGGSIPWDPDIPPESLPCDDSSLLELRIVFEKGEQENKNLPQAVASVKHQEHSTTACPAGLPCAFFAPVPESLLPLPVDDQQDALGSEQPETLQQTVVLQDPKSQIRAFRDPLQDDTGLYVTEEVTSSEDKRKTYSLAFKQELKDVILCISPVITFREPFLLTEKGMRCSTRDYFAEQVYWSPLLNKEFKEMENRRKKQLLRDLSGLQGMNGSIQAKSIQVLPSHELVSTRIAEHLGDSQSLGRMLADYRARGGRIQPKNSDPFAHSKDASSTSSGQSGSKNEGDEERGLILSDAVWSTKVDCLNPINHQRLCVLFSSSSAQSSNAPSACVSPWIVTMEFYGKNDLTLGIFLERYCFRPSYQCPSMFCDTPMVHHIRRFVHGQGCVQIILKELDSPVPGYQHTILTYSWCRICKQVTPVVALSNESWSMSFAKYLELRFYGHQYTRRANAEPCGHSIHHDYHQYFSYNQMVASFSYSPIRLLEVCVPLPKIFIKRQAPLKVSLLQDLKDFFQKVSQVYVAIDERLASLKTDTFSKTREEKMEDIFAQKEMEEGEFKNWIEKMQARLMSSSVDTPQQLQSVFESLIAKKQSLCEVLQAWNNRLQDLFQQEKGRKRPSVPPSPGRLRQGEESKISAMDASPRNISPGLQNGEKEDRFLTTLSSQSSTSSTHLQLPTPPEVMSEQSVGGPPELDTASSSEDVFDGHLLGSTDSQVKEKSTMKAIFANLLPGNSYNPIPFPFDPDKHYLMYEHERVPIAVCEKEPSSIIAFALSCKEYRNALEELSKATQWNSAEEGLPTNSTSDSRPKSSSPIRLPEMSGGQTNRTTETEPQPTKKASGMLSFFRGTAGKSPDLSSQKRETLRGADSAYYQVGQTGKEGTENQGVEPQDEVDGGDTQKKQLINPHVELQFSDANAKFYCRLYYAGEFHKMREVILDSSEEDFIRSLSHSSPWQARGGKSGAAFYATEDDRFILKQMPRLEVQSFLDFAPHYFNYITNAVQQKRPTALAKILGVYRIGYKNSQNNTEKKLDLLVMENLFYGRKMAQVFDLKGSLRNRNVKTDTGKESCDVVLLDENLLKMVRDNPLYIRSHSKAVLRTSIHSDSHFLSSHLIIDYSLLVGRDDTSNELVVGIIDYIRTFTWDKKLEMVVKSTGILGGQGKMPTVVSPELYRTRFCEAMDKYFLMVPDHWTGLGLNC

[12] = biological target: Cyclin-dependent kinase 19 (Homo sapiens) (UniProt Q9BWU1); conditions: Compound concentration 1000.0 nM
[13] = biological target: Cyclin-dependent kinase 11A (Homo sapiens) (UniProt Q9UQ88); conditions: Compound concentration 1000.0 nM
[14] = biological target: Mitogen-activated protein kinase kinase kinase 3 (Homo sapiens) (UniProt Q99759); conditions: Compound concentration 1000.0 nM
[15] = test system: Tyrosine-protein kinase ABL1 (Homo sapiens), P00519 [F317L]; conditions: Compound concentration 1000.0 nM
[16] = biological target: Phosphatidylinositol 3-kinase catalytic subunit type 3 (Homo sapiens) (UniProt Q8NEB9); conditions: Compound concentration 1000.0 nM
[17] = biological target: Dual specificity protein kinase CLK3 (Homo sapiens) (UniProt P49761); conditions: Compound concentration 1000.0 nM
Sequence of Dual specificity protein kinase CLK3 (Homo sapiens) (P49761 whole entry, looked up): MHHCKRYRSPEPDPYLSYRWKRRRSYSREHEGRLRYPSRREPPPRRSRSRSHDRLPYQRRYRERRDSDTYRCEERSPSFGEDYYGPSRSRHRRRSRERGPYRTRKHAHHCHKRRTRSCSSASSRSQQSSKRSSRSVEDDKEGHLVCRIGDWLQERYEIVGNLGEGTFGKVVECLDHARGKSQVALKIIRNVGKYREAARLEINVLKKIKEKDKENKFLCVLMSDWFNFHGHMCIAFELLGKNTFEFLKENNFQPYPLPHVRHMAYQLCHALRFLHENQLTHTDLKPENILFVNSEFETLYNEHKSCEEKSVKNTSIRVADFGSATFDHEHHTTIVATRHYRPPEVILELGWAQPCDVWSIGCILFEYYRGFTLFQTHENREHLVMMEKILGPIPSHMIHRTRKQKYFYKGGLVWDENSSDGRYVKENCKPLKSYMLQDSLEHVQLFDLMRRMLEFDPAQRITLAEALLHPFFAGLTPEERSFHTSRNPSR

[18] = biological target: Rhodopsin kinase GRK7 (Homo sapiens) (UniProt Q8WTQ7); conditions: Compound concentration 1000.0 nM
[19] = test system: Tyrosine-protein kinase ABL1 (Homo sapiens), P00519 [H396P]; conditions: Compound concentration 1000.0 nM
[20] = test system: Hepatocyte growth factor receptor (Homo sapiens), P08581 [M1250T]; conditions: Compound concentration 1000.0 nM
[21] = test system: Proto-oncogene tyrosine-protein kinase receptor Ret (Homo sapiens), P07949 [M918T]; conditions: Compound concentration 1000.0 nM
[22] = biological target: Serine/threonine-protein kinase Nek6 (Homo sapiens) (UniProt Q9HC98); conditions: Compound concentration 1000.0 nM
[23] = biological target: Casein kinase I isoform gamma-2 (Homo sapiens) (UniProt P78368); conditions: Compound concentration 1000.0 nM
[24] = biological target: Serine/threonine-protein kinase tousled-like 2 (Homo sapiens) (UniProt Q86UE8); conditions: Compound concentration 1000.0 nM
[25] = biological target: Tyrosine-protein kinase BTK (Homo sapiens) (UniProt Q06187); conditions: Compound concentration 1000.0 nM
[26] = biological target: Cyclin-dependent kinase 2 homolog (Plasmodium falciparum (isolate 3D7)) (UniProt P61075); conditions: Compound concentration 1000.0 nM
[27] = biological target: Serine/threonine-protein kinase MARK1 (Homo sapiens) (UniProt Q9P0L2); conditions: Compound concentration 1000.0 nM
[28] = biological target: Mitogen-activated protein kinase 4 (Homo sapiens) (UniProt P31152); conditions: Compound concentration 1000.0 nM
[29] = biological target: Platelet-derived growth factor receptor beta (Homo sapiens) (UniProt P09619); conditions: Compound concentration 1000.0 nM
[30] = biological target: 5-hydroxytryptamine receptor 7 (Homo sapiens) (UniProt P34969); conditions: Compound concentration 10.0 uM
[31] = biological target: Serine/threonine-protein kinase PknB (Mycobacterium tuberculosis) (UniProt P9WI81); conditions: Compound concentration 1000.0 nM
[32] = biological target: Dual specificity protein kinase CLK2 (Homo sapiens) (UniProt P49760); conditions: Compound concentration 1000.0 nM
[33] = biological target: Casein kinase II subunit alpha (Homo sapiens) (UniProt P68400); conditions: Compound concentration 1000.0 nM
Sequence of Casein kinase II subunit alpha (Homo sapiens) (P68400 whole entry, looked up): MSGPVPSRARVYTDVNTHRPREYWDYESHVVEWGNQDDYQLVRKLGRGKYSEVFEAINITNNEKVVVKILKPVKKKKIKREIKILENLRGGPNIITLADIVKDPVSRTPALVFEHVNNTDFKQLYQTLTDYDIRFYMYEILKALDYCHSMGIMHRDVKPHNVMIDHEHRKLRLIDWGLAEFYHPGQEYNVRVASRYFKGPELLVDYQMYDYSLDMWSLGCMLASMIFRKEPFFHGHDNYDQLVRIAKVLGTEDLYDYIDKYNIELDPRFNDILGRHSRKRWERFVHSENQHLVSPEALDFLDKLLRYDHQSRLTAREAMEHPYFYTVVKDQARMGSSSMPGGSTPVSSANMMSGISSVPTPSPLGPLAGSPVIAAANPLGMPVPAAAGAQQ

[34] = test system: Tyrosine-protein kinase ABL1 (Homo sapiens), P00519 [Q252H]; conditions: Compound concentration 1000.0 nM
[35] = test system: Epidermal growth factor receptor (Homo sapiens), P00533 [G719S]; conditions: Compound concentration 1000.0 nM
[36] = biological target: Phosphatidylinositol 4,5-bisphosphate 3-kinase catalytic subunit alpha isoform (Homo sapiens) (UniProt P42336); conditions: Compound concentration 1000.0 nM
[37] = biological target: Cyclin-dependent kinase 2 (Homo sapiens) (UniProt P24941); conditions: Compound concentration 1000.0 nM
[38] = biological target: Serine/threonine-protein kinase PRP4 homolog (Homo sapiens) (UniProt Q13523); conditions: Compound concentration 1000.0 nM
[39] = biological target: Serine/threonine-protein kinase PAK 5 (Homo sapiens) (UniProt Q9P286); conditions: Compound concentration 1000.0 nM
Sequence of Serine/threonine-protein kinase PAK 5 (Homo sapiens) (Q9P286 whole entry, looked up): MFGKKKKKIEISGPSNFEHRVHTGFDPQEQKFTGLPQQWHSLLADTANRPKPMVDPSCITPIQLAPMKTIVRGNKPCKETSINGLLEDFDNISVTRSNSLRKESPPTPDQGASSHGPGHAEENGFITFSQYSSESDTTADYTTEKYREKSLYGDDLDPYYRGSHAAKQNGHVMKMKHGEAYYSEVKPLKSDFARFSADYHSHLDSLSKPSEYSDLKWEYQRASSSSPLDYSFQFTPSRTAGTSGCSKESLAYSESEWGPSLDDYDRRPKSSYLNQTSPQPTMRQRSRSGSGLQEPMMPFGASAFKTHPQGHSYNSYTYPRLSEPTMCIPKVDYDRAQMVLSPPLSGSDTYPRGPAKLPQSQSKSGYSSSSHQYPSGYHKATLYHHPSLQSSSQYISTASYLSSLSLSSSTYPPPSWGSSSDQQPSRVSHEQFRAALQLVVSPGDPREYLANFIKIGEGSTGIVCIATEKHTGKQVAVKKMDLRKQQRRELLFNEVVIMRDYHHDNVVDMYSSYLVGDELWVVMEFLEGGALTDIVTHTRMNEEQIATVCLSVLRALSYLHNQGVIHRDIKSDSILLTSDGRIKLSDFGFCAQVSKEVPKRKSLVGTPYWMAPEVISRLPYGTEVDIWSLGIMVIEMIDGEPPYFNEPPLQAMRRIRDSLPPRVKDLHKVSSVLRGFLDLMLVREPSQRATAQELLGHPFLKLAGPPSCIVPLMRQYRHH

[40] = biological target: Mitogen-activated protein kinase kinase kinase kinase 5 (Homo sapiens) (UniProt Q9Y4K4); conditions: Compound concentration 1000.0 nM
[41] = biological target: Serine/threonine-protein kinase PAK 2 (Homo sapiens) (UniProt Q13177); conditions: Compound concentration 1000.0 nM
[42] = test system: Tyrosine-protein kinase ABL1 (Homo sapiens), P00519 [H396P]; conditions: Compound concentration 1000.0 nM; remark: listed apart in the source
[43] = biological target: Casein kinase II subunit alpha' (Homo sapiens) (UniProt P19784); conditions: Compound concentration 1000.0 nM
[44] = biological target: Protein kinase C iota type (Homo sapiens) (UniProt P41743); conditions: Compound concentration 1000.0 nM
[45] = biological target: LIM domain kinase 2 (Homo sapiens) (UniProt P53671); conditions: Compound concentration 1000.0 nM

Sequence of Sigma non-opioid intracellular receptor 1 (Homo sapiens) (Q99720 whole entry): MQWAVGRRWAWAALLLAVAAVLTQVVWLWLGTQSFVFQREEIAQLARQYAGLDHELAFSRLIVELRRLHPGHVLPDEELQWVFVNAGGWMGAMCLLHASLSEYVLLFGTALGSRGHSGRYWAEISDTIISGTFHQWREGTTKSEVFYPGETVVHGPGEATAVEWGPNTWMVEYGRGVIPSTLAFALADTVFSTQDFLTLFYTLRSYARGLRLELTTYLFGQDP

Cc1nc(Cc2cccc(C(F)(F)F)c2)sc1-c1ccc(C(N)=O)nc1 [TP-024n]
inactive: residual activity [1] 100% | inhibition [2] 11.7% | residual activity [3] 99% | residual activity [4] 100% | residual activity [5] 92% | residual activity [6] 100% | residual activity [7] 100% | residual activity [8] 100% | residual activity [9] 76% | residual activity [10] 88% | residual activity [11] 75% | residual activity [12] 98% | residual activity [13] 92% | residual activity [14] 97% | residual activity [15] 93% | residual activity [16] 100% | residual activity [17] 85% | residual activity [18] 100% | residual activity [19] 96% | residual activity [20] 92% | residual activity [21] 95% | residual activity [22] 90% | residual activity [23] 82% | residual activity [24] 82% | residual activity [25] 100% | residual activity [26] 100% | residual activity [27] 90% | residual activity [28] 100% | residual activity [29] 92% | inhibition [30] 16.4% | residual activity [31] 99% | residual activity [32] 100% | residual activity [33] 100% | residual activity [34] 87% | residual activity [35] 67% | residual activity [36] 88% | residual activity [37] 100% | residual activity [38] 70% | residual activity [39] 97% | residual activity [40] 87% | residual activity [41] 60% | residual activity [42] 87% | residual activity [43] 96% | residual activity [44] 100% | residual activity [45] 98%

Cc1cc(-n2nc(Cc3cc(F)cc(C(F)(F)F)c3)nc2C)ccc1C(N)=O [TP-024]
inactive: residual activity [1] 100% | inhibition [2] 5.85% | residual activity [3] 100% | residual activity [4] 96% | residual activity [5] 100% | residual activity [6] 100% | residual activity [7] 100% | residual activity [8] 100% | residual activity [9] 69% | residual activity [10] 100% | residual activity [11] 70% | residual activity [12] 88% | residual activity [13] 100% | residual activity [14] 94% | residual activity [15] 100% | residual activity [16] 100% | residual activity [17] 94% | residual activity [18] 100% | residual activity [19] 98% | residual activity [20] 80% | residual activity [21] 100% | residual activity [22] 95% | residual activity [23] 79% | residual activity [24] 100% | residual activity [25] 100% | residual activity [26] 100% | residual activity [27] 100% | residual activity [28] 100% | residual activity [29] 98% | inhibition [30] 21.4% | residual activity [31] 78% | residual activity [32] 94% | residual activity [33] 100% | residual activity [34] 94% | residual activity [35] 100% | residual activity [36] 100% | residual activity [37] 100% | residual activity [38] 54% | residual activity [39] 100% | residual activity [40] 100% | residual activity [41] 75% | residual activity [42] 97% | residual activity [43] 91% | residual activity [44] 100% | residual activity [45] 95%
